In brackets after ≈: the same amount, converted by molar mass. Activity calls are given as the source filed them. The rule behind the calls is not given here. Starred links: 1 amine or outer side, 2 acyl side, 3 side chain; linkers in the order of their positions; H or OH if unused. Positions of bridges follow the written chain, without caps; N, C: chain ends. Non-standard residues stand in square brackets, D forms with d. Residues, ends and D or L forms follow the SMILES beside them. Groups on a side chain read outwards from the residue. ξ: configuration not given here. ξGly(decyl) = CCCCCCCCCCC(N)C(=O)O; Suc = O=C(CCC(=O)[*:2])[*:1]
How the values were obtained:
[1] = system: Staphylococcus aureus; test: Antimicrobial activity against methicillin-resistant Staphylococcus aureus ATCC 43300 after 20 hrs by microdilution assay; assay type: functional; conditions: ATCC 43300, 20 h
[2] = system: Staphylococcus aureus; test: Antimicrobial activity against methicillin-susceptible Staphylococcus aureus ATCC 25923 after 20 hrs by microdilution assay; assay type: functional; conditions: ATCC 25923, 20 h
[3] = system: Staphylococcus aureus; test: Antimicrobial activity against clinical isolates of multi-resistant/methicillin-resistant Staphylococcus aureus after 20 hrs by microdilution assay; assay type: functional
[4] = system: Staphylococcus aureus; test: Antimicrobial activity against glycopeptide-intermediate Staphylococcus aureus NRS17 after 20 hrs by microdilution assay; assay type: functional; conditions: NRS17, 20 h
[5] = system: Staphylococcus aureus; test: Antimicrobial activity against glycopeptide-intermediate Staphylococcus aureus NRS1 after 20 hrs by microdilution assay; assay type: functional; conditions: NRS1, 20 h
[6] = system: Staphylococcus aureus; test: Antimicrobial activity against clinical isolates of methicillin-resistant Staphylococcus aureus after 20 hrs by microdilution assay; assay type: functional
[7] = system: Staphylococcus aureus; test: Antimicrobial activity against vancomycin-resistant Staphylococcus aureus NARSA VRS4 after 20 hrs by microdilution assay; assay type: functional; conditions: NARSA VRS4, 20 h
[8] = system: Staphylococcus aureus; test: Antimicrobial activity against vancomycin-resistant Staphylococcus aureus NARSA VRS1 after 20 hrs by microdilution assay; assay type: functional; conditions: NARSA VRS1, 20 h
[9] = system: Staphylococcus aureus; test: Antimicrobial activity against vancomycin-resistant Staphylococcus aureus NARSA VRS10 after 20 hrs by microdilution assay; assay type: functional; conditions: NARSA VRS10, 20 h
[10] = system: Streptococcus pneumoniae; test: Antimicrobial activity against multidrug resistant Streptococcus pneumoniae ATCC 700677 after 20 hrs by microdilution assay; assay type: functional; conditions: ATCC 700677, 20 h
[11] = system: Enterococcus faecalis; test: Antimicrobial activity against clinical isolates of high level vancomycin-resistant Enterococcus faecalis after 20 hrs by microdilution assay; assay type: functional
[12] = system: Enterococcus faecium; test: Antimicrobial activity against multidrug resistant and high level vancomycin resistant Enterococcus faecium ATCC 51559 after 20 hrs by microdilution assay; assay type: functional; conditions: ATCC 51559, 20 h
[13] = system: Escherichia coli; test: Antimicrobial activity against Escherichia coli ATCC 25922 after 20 hrs by microdilution assay; assay type: functional; conditions: ATCC 25922, 20 h
[14] = system: Klebsiella pneumoniae; test: Antimicrobial activity against multidrug resistant Klebsiella pneumoniae ATCC 700603 after 20 hrs by microdilution assay; assay type: functional; conditions: Klebsiella pneumoniae, 700603, 20 h
[15] = system: Klebsiella pneumoniae; test: Antimicrobial activity against Klebsiella pneumoniae ATCC 13883 after 20 hrs by microdilution assay; assay type: functional; conditions: ATCC 13883, 20 h
[16] = system: Acinetobacter baumannii; test: Antimicrobial activity against Acinetobacter baumannii […] after 20 hrs by microdilution assay; assay type: functional
[17] = system: Pseudomonas aeruginosa; test: Antimicrobial activity against Pseudomonas aeruginosa ATCC 27853 after 20 hrs by microdilution assay; assay type: functional; conditions: ATCC 27853, 20 h
[18] = system: Klebsiella pneumoniae; test: Antimicrobial activity against NDM-1 positive Klebsiella pneumoniae BAA-2146 after 20 hrs by microdilution assay; assay type: functional; conditions: ATCC BAA-2146, 20 h
[19] = Cytotoxicity against HEK293 cells after 24 hrs by MTT assay; assay type: cell-based; conditions: human
[20] = Cytotoxicity against human HepG2 cells after 24 hrs by MTT assay; assay type: cell-based
[21] = system: Staphylococcus aureus; test: Antimicrobial activity against methicillin-susceptible Staphylococcus aureus ATCC 25923 after 24 hrs by M7-A7 method; assay type: functional; conditions: ATCC 25923, 24 h
[22] = system: Staphylococcus aureus; test: Antimicrobial activity against methicillin-resistant Staphylococcus aureus ATCC 43300 after 24 hrs by M7-A7 method; assay type: functional; conditions: ATCC 43300, 24 h
[23] = system: Staphylococcus aureus; test: Antimicrobial activity against clinical isolates of multi-resistant/methicillin-resistant Staphylococcus aureus after 24 hrs by M7-A7 method; assay type: functional
[24] = system: Staphylococcus aureus; test: Antimicrobial activity against glycopeptide-intermediate Staphylococcus aureus NRS17 after 24 hrs by M7-A7 method; assay type: functional; conditions: NRS17, 24 h
[25] = system: Staphylococcus aureus; test: Antimicrobial activity against glycopeptide-intermediate Staphylococcus aureus NRS1 after 24 hrs by M7-A7 method; assay type: functional; conditions: NRS1, 24 h
[26] = system: Staphylococcus aureus; test: Antimicrobial activity against clinical isolates of methicillin-resistant Staphylococcus aureus after 24 hrs by M7-A7 method; assay type: functional
[27] = system: Staphylococcus aureus; test: Antimicrobial activity against vancomycin-resistant Staphylococcus aureus NARSA VRS4 after 24 hrs by M7-A7 method; assay type: functional; conditions: NARSA VRS4, 24 h
[28] = system: Staphylococcus aureus; test: Antimicrobial activity against vancomycin-resistant Staphylococcus aureus NARSA VRS1 after 24 hrs by M7-A7 method; assay type: functional; conditions: NARSA VRS1, 24 h
[29] = system: Staphylococcus aureus; test: Antimicrobial activity against vancomycin-resistant Staphylococcus aureus NARSA VRS10 after 24 hrs by M7-A7 method; assay type: functional; conditions: NARSA VRS10, 24 h
[30] = system: Streptococcus pneumoniae; test: Antimicrobial activity against multidrug resistant Streptococcus pneumoniae ATCC 700677 after 24 hrs by M7-A7 method; assay type: functional; conditions: ATCC 700677, 24 h
[31] = system: Enterococcus faecalis; test: Antimicrobial activity against clinical isolates of high level vancomycin-resistant Enterococcus faecalis after 24 hrs by M7-A7 method; assay type: functional
[32] = system: Enterococcus faecium; test: Antimicrobial activity against multidrug resistant and high level vancomycin resistant Enterococcus faecium ATCC 51559 after 24 hrs by M7-A7 method; assay type: functional; conditions: ATCC 51559, 24 h
[33] = system: Escherichia coli; test: Antimicrobial activity against Escherichia coli ATCC 25922 after 24 hrs by M7-A7 method; assay type: functional; conditions: ATCC 25922, 24 h
[34] = system: Klebsiella pneumoniae; test: Antimicrobial activity against multidrug resistant Klebsiella pneumoniae ATCC 700603 after 24 hrs by M7-A7 method; assay type: functional; conditions: Klebsiella pneumoniae, 700603, 24 h
[35] = system: Klebsiella pneumoniae; test: Antimicrobial activity against Klebsiella pneumoniae ATCC 13883 after 24 hrs by M7-A7 method; assay type: functional; conditions: ATCC 13883, 24 h
[36] = system: Acinetobacter baumannii; test: Antimicrobial activity against Acinetobacter baumannii […] after 24 hrs by M7-A7 method; assay type: functional
[37] = system: Pseudomonas aeruginosa; test: Antimicrobial activity against Pseudomonas aeruginosa ATCC 27853 after 24 hrs by M7-A7 method; assay type: functional; conditions: ATCC 27853, 24 h
[38] = system: Klebsiella pneumoniae; test: Antimicrobial activity against NDM-1 positive Klebsiella pneumoniae BAA-2146 after 24 hrs by M7-A7 method; assay type: functional; conditions: ATCC BAA-2146, 24 h
[39] = system: Staphylococcus aureus; test: Antimicrobial activity against methicillin-susceptible Staphylococcus aureus ATCC 25923 assessed as blister appearance on cell surface at 16 times MIC after 3 hrs by transmission electron microscopic analysis; assay type: functional, organism-based
[40] = system: Staphylococcus aureus; test: Antimicrobial activity against methicillin-susceptible Staphylococcus aureus ATCC 25923 assessed as surface blebs at 16 times MIC after 3 hrs by transmission electron microscopic analysis; assay type: functional, organism-based

| Structure (SMILES) | MIC [1] [µM] | MIC [2] [µM] | MIC [3] [µM] | MIC [4] [µM] | MIC [5] [µM] | MIC [6] [µM] | MIC [7] [µM] | MIC [8] [µM] | MIC [9] [µM] | MIC [10] [µM] | MIC [11] [µM] | MIC [12] [µM] | MIC [13] [µM] | MIC [14] [µM] | MIC [15] [µM] | MIC [16] [µM] | MIC [17] [µM] | MIC [18] [µM] | CC50 at 24 h [19] [µM] | CC50 at 24 h [20] [µM] | other results |
| --- | --- | --- | --- | --- | --- | --- | --- | --- | --- | --- | --- | --- | --- | --- | --- | --- | --- | --- | --- | --- | --- |
| CCCCCCCCCCC(NC(=O)C(CCCCNC(=O)C(CCCCN)NC(C)=O)NC(=O)C(CCCCN)NC(C)=O)C(N)=O (configuration not stated) | > 30 | > 30 | > 30 | > 30 | > 30 | > 30 | > 30 | > 30 | > 30 | > 30 | 30 (≈ 20.5 µg/mL) | > 30 | > 30 | > 30 | > 30 | > 30 | > 30 | > 30 | > 15 | > 15 |  |
| CCCCCCCCCCC1NC(=O)C(CCCCCCCCCC)NC(=O)C(CCCCN)NC(=O)C(CCCCN)NC(=O)CCC(=O)NCCCCC(C(=O)NCC(N)=O)NC1=O (configuration not stated) (KK[ξGly(decyl)][ξGly(decyl)]KG-NH2; linker N-5 via Suc; configuration not given here) |  |  |  |  |  |  |  |  |  |  |  |  |  |  |  |  |  |  |  |  | MIC [21]: 0.5 µM (≈ 0.468 µg/mL); MIC [22]: 0.5 µM (≈ 0.468 µg/mL); MIC [23]: 1.9 µM (≈ 1.78 µg/mL); MIC [24]: 0.9 µM (≈ 0.842 µg/mL); MIC [25]: 1.2 µM (≈ 1.12 µg/mL); MIC [26]: 1.4 µM (≈ 1.31 µg/mL); MIC [27]: 0.5 µM (≈ 0.468 µg/mL); MIC [28]: 0.7 µM (≈ 0.655 µg/mL); MIC [29]: 0.9 µM (≈ 0.842 µg/mL); MIC [30]: 0.9 µM (≈ 0.842 µg/mL); MIC [31]: 0.2 µM (≈ 0.187 µg/mL); MIC [32]: 0.3 µM (≈ 0.281 µg/mL); MIC [33]: ≥ 30 µM; MIC [34]: > 30 µM; MIC [35]: > 30 µM; MIC [36]: 15 µM (≈ 14 µg/mL); MIC [37]: 30 µM (≈ 28.1 µg/mL); MIC [38]: > 30 µM |
| CN[C@@H](CC(C)C)C(=O)N[C@H]1C(=O)N[C@@H](CC(N)=O)C(=O)N[C@H]2C(=O)N[C@H]3C(=O)N[C@H](C(=O)N[C@@H](C(=O)O)c4cc(O)cc(O)c4-c4cc3ccc4O)[C@H](O)c3ccc(c(Cl)c3)Oc3cc2cc(c3O[C@H]2O[C@@H](CO)[C@H](O)[C@@H](O)[C@@H]2O[C@@H]2C[C@@](C)(N)[C@@H](O)[C@@H](C)O2)Oc2ccc(cc2Cl)[C@H]1O | 0.6 (≈ 0.87 µg/mL) | 0.7 (≈ 1.01 µg/mL) | 1 (≈ 1.45 µg/mL) | 2.8 (≈ 4.06 µg/mL) | 1 (≈ 1.45 µg/mL) | 5.5 (≈ 7.97 µg/mL) | > 44 | > 44 | > 44 | 0.7 (≈ 1.01 µg/mL) | > 44 | > 44 |  |  |  |  |  |  |  |  | Activity [39]: Active; Activity [40]: Active |
| CCCCCCCCCCC(NC(=O)C(CCCCCCCCCC)NC(=O)C(CCCCNC(=O)C(CCCCN)NC(C)=O)NC(=O)C(CCCCN)NC(C)=O)C(N)=O (configuration not stated) (Ac-KK([Lys-Ac])[ξGly(decyl)][ξGly(decyl)]-NH2; configuration not given here) | 0.9 (≈ 0.792 µg/mL) | 3.75 (≈ 3.3 µg/mL) | 2.8 (≈ 2.46 µg/mL) | 7.5 (≈ 6.6 µg/mL) | 7.5 (≈ 6.6 µg/mL) | 5.6 (≈ 4.93 µg/mL) | 2.8 (≈ 2.46 µg/mL) | 1.9 (≈ 1.67 µg/mL) | 1.9 (≈ 1.67 µg/mL) | 2.8 (≈ 2.46 µg/mL) | 0.9 (≈ 0.792 µg/mL) | 0.9 (≈ 0.792 µg/mL) | > 30 | > 30 | > 30 | 30 (≈ 26.4 µg/mL) | 30 (≈ 26.4 µg/mL) | > 30 | > 15 | > 15 |  |

— ChEMBL document CHEMBL3779783, “Short cationic lipopeptides as effective antibacterial agents: Design, physicochemical properties and biological evaluation” (Bioorg Med Chem, 2016)
